In ChEMBL document CHEMBL1153583, “Organocatalytic synthesis and sterol 14alpha-demethylase binding interactions of enantioriched 3-(1H-1,2,4-triazol-1-yl)butyl benzoates” (Bioorg Med Chem Lett, 2009):

Test: Binding affinity to Penicillium digitatum CYP51 expressed in Escherichia coli by UV-visible spectrophotometry

| Structure (SMILES) | Kd |
| --- | --- |
| Cc1ccc(C(=O)OCC[C@@H](C)n2cncn2)cc1 | 0.338 µM |
| C[C@H](CCOC(=O)c1ccccc1)n1cncn1 | 1.62 µM |
| C[C@@H](CCOC(=O)c1cccc(Cl)c1)n1cncn1 | 0.472 µM |
| C[C@H](CCOC(=O)c1ccc(Cl)cc1)n1cncn1 | 0.682 µM |
| C[C@@H](CCOC(=O)c1ccccc1)n1cncn1 | 1.42 µM |
| C[C@@H](CCOC(=O)c1ccccc1Cl)n1cncn1 | 0.56 µM |
| C[C@@H](CCOC(=O)c1ccc(Cl)cc1)n1cncn1 | 0.988 µM |
| Cc1ccc(C(=O)OCC[C@H](C)n2cncn2)cc1 | 10.5 µM |
| C[C@H](CCOC(=O)c1cccc(Cl)c1)n1cncn1 | 2.36 µM |
| C[C@@H](CCOC(=O)c1ccc(Cl)cc1Cl)n1cncn1 | 0.452 µM |
| C[C@H](CCOC(=O)c1ccccc1Cl)n1cncn1 | 0.58 µM |
| CC(CCOC(=O)c1ccccc1)n1cncn1 (racemic) | 1.18 µM |
| CC(CCOC(=O)c1cccc(Cl)c1)n1cncn1 (racemic) | 0.743 µM |
| CC(CCOC(=O)c1ccc(Cl)cc1Cl)n1cncn1 (racemic) | 0.973 µM |
| CC(CCOC(=O)c1ccccc1Cl)n1cncn1 (racemic) | 1.12 µM |
| CC(CCOC(=O)c1ccc(Cl)cc1)n1cncn1 (racemic) | 1.38 µM |
| Cc1ccc(C(=O)OCCC(C)n2cncn2)cc1 (racemic) | 1.74 µM |
| CC(C)(C)C(O)/C(=C/c1ccc(Cl)cc1Cl)n1cncn1 (centres undefined) [DINICONAZOLE] | 0.247 µM |
| CC(C)(C)C(=O)C(Oc1ccc(Cl)cc1)n1cncn1 (centres undefined) [TRIADIMEFON] | 0.935 µM |
